Assay results from publication PMC12163725, “Synthesis and functionalization of vinyl sulfonimidamides and their potential as electrophilic warheads” (Chemical Science, 2025).

Test: Kinetic study of reaction with glutathione (GSH), half-life by 1H NMR (disappearance of vinyl group)
Details: second order kinetics, 1.0 equiv. glutathione, phosphate buffer pH 7.3 in D2O:(CD3)2SO = 2:1, 1H NMR
Method: The reactivity of the vinyl sulfonimidamides was next examined under biologically relevant conditions using glutathione (GSH) as the nucleophile at pH 7.3 (Scheme 4).[32] The half-life (t1/2) was determined using ^1H NMR analysis, with the disappearance of the vinyl group monitored as a function of time (full experimental details are provided in the ESI ^†). […] Due to the rapid reaction rates, the half-life for the majority of substrates was calculated using second-order kinetics. However, the half-life of unfunctionalized α-Me and β-Me-substituted sulfonimidamide derivatives were determined with pseudo-first-order kinetics using six equivalents of glutathione.
Reaction was conducted in a mixture of buffer solution and deuterated DMSO
(Buffer:(CD3)2SO = 2:1). A relatively high (CD3)2SO ratio was employed due to the insolubility
of less polar substrates in the buffer solution.
Buffer solution containing 0.0648 mol/L disodium hydrogen phosphate and 0.0153 mol/L
potassium dihydrogen phosphate at p H 7.3[10] was prepared using d euterium oxide and
stored at 20 °C. […] The stock solution […]
For the majority of substrates, the half-life was determined using second order kinetics with […]
was measured and plotted as the inverse against time. The half-life was calculated through […]
starting material was plotted as natural log and the half-life was calculated through the best-

Half-life (t1/2) of reaction with GSH: too fast to be determined
Compound: C=CS(=O)(=NS(C)(=O)=O)N1CCOCC1 (stereo not shown) [Compound 3e]
